For test [1], the target named is T1, Human Platelet PDE IIIc (Homo sapiens, UniProt Q14432).
T1 construct: canine heart and human platelet phosphodiesterase PDE IIIc; from tissue; host or cells: human platelets
Put plainly: Inhibition of phosphodiesterase type IIIc (3H-cAMP hydrolysis), human platelet enzyme. The format is biochemical. As to conditions: pH 7.1, 1.2 µM 3H-cAMP, 10 min at 37°C; IC50 calculated graphically. The protocol: The incubation mixture (pH 7.1) (200 »l) contained 50mM 4-morpholinopropanesulfonic acid (MOPS), 1mM ethylenebis(oxyethylenenitrilo)tetraacetic acid (EGTA), 6 mM magnesium chloride, 0.25 mg/ml bovine serum albumin, 1.2 »M ³H-cAMP (310 mCi/mmole) and the phosphodiesterase type IIIc, and was prepared by dilution with water of a stock solution of MOPS, EGTA, MgCl₂, BSA and ³H-cAMP (50 »l) and 2 to 50 »l of a solution of phosphodiesterase type IIIc, depending on the enzymatic activity. […] When the effect of different compounds on phosphodiesterase activity was tested, the medium without cAMP was incubated with the compound(s) or its carrier (DMSO - 1% final concentration) for 5 min. The enzymatic reaction was started by addition of ³H-cAMP and stopped 10 min later after transferring the tubes in a waterbath at 100°C for 40 sec. After cooling to room temperature, alkaline phosphatase (0.25 »g/ml) was added and the mixture was left at room temperature for 20 min. The mixture was subsequently applied to a 1 ml DEAE-Sephadex A-25 column (pasteur pipet) and washed twice with 3 ml 20 mM Tris-HCl at pH 7.4. The ³H-labelled reaction products in the eluate were quantified by liquid scintillation counting. The inhibiting effect of the present compounds on canine heart and human platelet phosphodiesterase PDE IIIc was measured at different concentrations of the instant compounds. The IC₅₀ values were calculated graphically from the thus obtained inhibition values.

Test [2] concerns mongrel dogs. Description: Haemodynamic variables in dogs after cumulative intravenous bolus administration. Type of test: in vivo. As to conditions: maximum end-dose 0.16 mg kg-1 (comp. 14: 0.08 mg kg-1). The protocol:
Compound (9) was dissolved in 20% hydroxypropyl beta cyclodextrine ether slightly acidified with 1N HCl, in a concentration of 1mg.ml⁻¹ (pH 5.5). The experiments were performed on 7 mongrel dogs of either sex and varying age, ranging in body weight from 27 to 33 kg (median 30 kg). The animals were intravenously anaesthetized with a mixture of 0.015 mg.kg⁻¹ scopolamine and 0.05 mg.kg⁻¹ lofentanil. The animals were intubated with a cuffed endotracheal tube. Intermittent positive pressure ventilation was performed with a mixture of pressurized air and oxygen (60/40), using a volumecontrolled ventilator (Siemens Elema). In the control period the CO₂ concentration in the expired air (ET CO₂), as determined with a capnograph (Gould Godart), was kept at 5 vol% by adjustment of the respiratory volume (resp. rate = 20 breaths.min⁻¹). A continous intravenous infusion of 0.5 mg.kg⁻¹.h⁻¹ of etomidate was started immediately after induction. Body temperature was monitored with a thermistor positioned in the pulmonary artery. To prevent blood clotting heparine, 1000 IU.kg⁻¹ iv., was administered. The electrocardiogram (ECG) was derived from limb leads (standard lead 2). Left ventricular (LVP) and ascending aortic blood pressure (AoP) were measured by retrograde catheterisation via the femoral […] with high fidelity cathetertip micromanometers (Honeywell). The other femoral vein was cannulated for injection of saline at room temperature into the right atrium and for injection of compound (9). Peak ascending aortic blood flow velocity was measured through the right carotid artery with an electomagnetic catheter-tip probe connected to a square wave electomagnetic flow meter (Janssen Scientific Instruments). The following variables -inter alia- were calculated on-line, usually at 1 min intervals: heart rate (HR), diastolic (AoPd) aortic blood pressure, left ventricular end-diastolic pressure (LVEDP), the maximum positive and maximum negative rate of change of isovolumic LVP (LV dp/dt max and min, respectively), the maximum positive first derivative divided by the actually developed pressure in the left ventricle (LV dp/dtmax/Pd). The time constant (T) of relaxation was measured with the use of an exponential analysis that also estimated the asymptote. […] In the wash-out period the effects were followed for 75 min. […]

The subject of test [3] is mongrel dogs. Put plainly: Positive inotropy and lusitropy, blood pressure and heart rate in anaesthetized dogs, slow intravenous infusion. Type of test: in vivo. The following applies: for cardiac output / heart rate: slow iv infusion over 120 min. The protocol:
The positive inotropic and lusitropic effect of the instant compounds were assessed by an in vitro assay system to detect inhibiting effect on the phosphodiesterase type IIIc and in an in vivo experiment in closed-chest anaestetized dogs by monitoring cardiac and haemodynamic effects of an intravenous infusion of the instant compounds.
Compound (9) was dissolved in 20% hydroxypropyl beta cyclodextrine ether slightly acidified with 1N HCl, in a concentration of 1mg.ml⁻¹ (pH 5.5). The experiments were performed on 7 mongrel dogs of either sex and varying age, ranging in body weight from 27 to 33 kg (median 30 kg). The animals were intravenously anaesthetized with a mixture of 0.015 mg.kg⁻¹ scopolamine and 0.05 mg.kg⁻¹ lofentanil. The animals were intubated with a cuffed endotracheal tube. Intermittent positive pressure ventilation was performed with a mixture of pressurized air and oxygen (60/40), using a volumecontrolled ventilator (Siemens Elema). In the control period the CO₂ concentration in the expired air (ET CO₂), as determined with a capnograph (Gould Godart), was kept at 5 vol% by adjustment of the respiratory volume (resp. rate = 20 breaths.min⁻¹). A continous intravenous infusion of 0.5 mg.kg⁻¹.h⁻¹ of etomidate was started immediately after induction. Body temperature was monitored with a thermistor positioned in the pulmonary artery. To prevent blood clotting heparine, 1000 IU.kg⁻¹ iv., was administered. The electrocardiogram (ECG) was derived from limb leads (standard lead 2). Left ventricular (LVP) and ascending aortic blood pressure (AoP) were measured by retrograde catheterisation via the femoral […] with high fidelity cathetertip micromanometers (Honeywell). The other femoral vein was cannulated for injection of saline at room temperature into the right atrium and for injection of compound (9). Peak ascending aortic blood flow velocity was measured through the right carotid artery with an electomagnetic catheter-tip probe connected to a square wave electomagnetic flow meter (Janssen Scientific Instruments). The following variables -inter alia- were calculated on-line, usually at 1 min intervals: heart rate (HR), diastolic (AoPd) aortic blood pressure, left ventricular end-diastolic pressure (LVEDP), the maximum positive and maximum negative rate of change of isovolumic LVP (LV dp/dt max and min, respectively), the maximum positive first derivative divided by the actually developed pressure in the left ventricle (LV dp/dtmax/Pd). The time constant (T) of relaxation was measured with the use of an exponential analysis that also estimated the asymptote. After a recorded control period of 20 min the intravenous infusion of compound (9) was started at a rate of […]. In the wash-out period the effects were followed for 75 min. […] These positive inotropic and lusitropic, and vasodilatory effects of the compound (9) are long-lasting, since the changes in the variables last for more than 75 min after stopping the infusion of a total dose of 0.60 mg.kg⁻¹. […]

Setting [4] is: slow infusion (0.005 mg kg-1 min-1) for two hours.

We go through 11 compounds from EP0406958B1, “Positive inotropic and lusitropic 3,5-dihydroimidazo[2,1-b]quinazolin-2(1H)-one derivatives” (JANSSEN PHARMACEUTICA N.V., priority 1989, dated 1991).

T1 sequence (Q14432 whole entry): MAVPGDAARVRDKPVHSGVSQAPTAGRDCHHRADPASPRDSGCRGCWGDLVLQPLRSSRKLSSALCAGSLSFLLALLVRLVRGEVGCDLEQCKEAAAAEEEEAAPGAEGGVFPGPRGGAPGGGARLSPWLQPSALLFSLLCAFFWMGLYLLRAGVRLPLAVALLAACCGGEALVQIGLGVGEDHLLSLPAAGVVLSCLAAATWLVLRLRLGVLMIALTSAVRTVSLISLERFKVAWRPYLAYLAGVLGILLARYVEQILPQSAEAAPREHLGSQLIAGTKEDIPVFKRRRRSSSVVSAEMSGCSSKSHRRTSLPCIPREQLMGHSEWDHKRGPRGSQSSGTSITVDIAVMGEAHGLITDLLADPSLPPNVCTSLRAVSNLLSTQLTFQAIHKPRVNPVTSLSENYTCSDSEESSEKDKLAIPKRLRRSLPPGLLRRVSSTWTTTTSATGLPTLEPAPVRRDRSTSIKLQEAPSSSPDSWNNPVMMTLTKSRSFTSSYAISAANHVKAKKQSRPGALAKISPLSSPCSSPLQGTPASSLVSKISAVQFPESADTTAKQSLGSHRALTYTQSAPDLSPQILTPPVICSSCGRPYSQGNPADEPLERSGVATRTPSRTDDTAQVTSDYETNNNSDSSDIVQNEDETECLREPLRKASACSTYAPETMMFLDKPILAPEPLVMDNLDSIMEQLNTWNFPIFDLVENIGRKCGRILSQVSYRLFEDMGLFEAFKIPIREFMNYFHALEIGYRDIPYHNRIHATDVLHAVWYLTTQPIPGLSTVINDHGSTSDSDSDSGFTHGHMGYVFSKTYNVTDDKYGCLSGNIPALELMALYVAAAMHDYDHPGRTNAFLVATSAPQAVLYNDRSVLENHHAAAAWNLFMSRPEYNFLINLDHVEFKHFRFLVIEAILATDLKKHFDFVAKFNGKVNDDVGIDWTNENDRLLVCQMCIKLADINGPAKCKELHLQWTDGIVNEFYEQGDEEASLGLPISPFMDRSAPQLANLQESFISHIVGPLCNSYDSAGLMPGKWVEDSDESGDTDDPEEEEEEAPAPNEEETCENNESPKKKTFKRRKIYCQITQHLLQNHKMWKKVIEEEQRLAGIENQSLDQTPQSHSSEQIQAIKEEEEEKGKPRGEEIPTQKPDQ

`COc1ccc(C(=O)c2ccc3c(c2)CN2CC(=O)NC2=N3)cc1OC` [compound 24]: the 50% inhibitory concentration (IC50) in test [1] was 340 nM.
On to `O=C1CN2Cc3cc(C(=O)c4ccc(F)cc4)ccc3N=C2N1` [compound 14], for which, in test [2], the “% changes in haemodynamic variables: AoPd (diastolic aortic blood pressure)” value (“% changes … (diastolic aortic blood pressure)” below) stood at 0%; the “% changes in haemodynamic variables: HR (heart rate)” value (“% changes … (heart rate)” for short) came out at 5%; the “% changes in haemodynamic variables: LVdp/dtmax/Pd (positive inotropic effect)” value stood at 35%; the “% changes in haemodynamic variables: T (time constant of relaxation, positive lusitropy)” value (“% changes in haemodynamic variables: T” for short) was -16%. In test [1], the half-maximal inhibitory concentration (IC50) was 520 nM.
Consider `CCOC(=O)C=C(c1ccccc1)c1ccc2c(c1)CN1CC(=O)NC1=N2` [compound 32], for which the IC50 in test [1] was 84 nM.
`CCOC(=O)CON=C(c1ccccc1)c1ccc2c(c1)CN1CC(=O)NC1=N2` [compound 6]: in test [2], the “% changes … (diastolic aortic blood pressure)” value is -13%; the “% changes … (heart rate)” value came out at 9%; the “% changes in haemodynamic variables: LVdp/dtmax/Pd (positive inotropic effect)” value is recorded as 31%; the “% changes in haemodynamic variables: T” value is listed as -15%. For the same compound, the half-inhibitory concentration (IC50) in test [1] was 380 nM.
On to `CN(C(=O)CON=C(c1ccccc1)c1ccc2c(c1)CN1CC(=O)NC1=N2)C1CCCCC1` [compound 8], for which, in test [2], the “% changes … (diastolic aortic blood pressure)” value is listed as 0%; the “% changes … (heart rate)” value was 0%; the “% changes in haemodynamic variables: LVdp/dtmax/Pd (positive inotropic effect)” value came to 29%; the “% changes in haemodynamic variables: T” value is on record as -45%. Further, in test [1], the IC50 is 58 nM.
Regarding `O=C1CN2Cc3cc(/C(=N/O)c4ccccc4)ccc3N=C2N1` [compound 3, (E)-3,5-dihydro-7-[(hydroxyimino)phenylmethyl]imidazo[2,1-b]quinazolin-2(1H)-one], the IC50 in test [1] was 190 nM. In test [3] (anaesthetized mongrel dogs), the cardiac output result was “increase in cardiac output” and the heart rate result is given as “without changing the heart rate”. In test [3] (setting [4]), the “cardiac inotropy and lusitropy” value is on record as “dose-related increase”; the “duration of effects after stopping the infusion” value is given as “more than 90 minutes”; the systemic vasodilation result is given as “dose-related systemic vasodilation”.
Turning to `O=C1CN2Cc3cc(C(=NO)c4ccccc4)ccc3N=C2N1` [compound 2, (E+Z)-3,5-dihydro-7-[(hydroxyimino)phenylmethyl]imidazo[2,1-b]quinazolin-2(1H)-one], in test [2], the “% changes … (diastolic aortic blood pressure)” value is -10%; the “% changes … (heart rate)” value amounted to 15%; the “% changes in haemodynamic variables: LVdp/dtmax/Pd (positive inotropic effect)” value is reported as 102%; the “% changes in haemodynamic variables: T” value is -38%. The half-inhibitory concentration (IC50) in test [1] is 190 nM.
In the case of `COc1ccc(C(=NO)c2ccc3c(c2)CN2CC(=O)NC2=N3)cc1` [compound 13], in test [2], the “% changes … (diastolic aortic blood pressure)” value amounted to 0%; the “% changes … (heart rate)” value is -10%; the “% changes in haemodynamic variables: LVdp/dtmax/Pd (positive inotropic effect)” value is recorded as 45%; the “% changes in haemodynamic variables: T” value is on record as -27%.
On to `CN(C(=O)CO/N=C(/c1ccccc1)c1ccc2c(c1)CN1CC(=O)NC1=N2)C1CCCCC1` [compound 10, (Z)-N-cyclohexyl-N-methyl-2-[[[phenyl(1,2,3,5-tetrahydro-2-oxoimidazo[2,1-b]quinazolin-7-yl)methylene]amino]-oxy]acetamide], for which, in test [2], the “% changes … (diastolic aortic blood pressure)” value was -5%; the “% changes … (heart rate)” value was determined as 0%; the “% changes in haemodynamic variables: LVdp/dtmax/Pd (positive inotropic effect)” value was 18%; the “% changes in haemodynamic variables: T” value is -13%. Further, the half-inhibitory concentration (IC50) in test [1] is 140 nM.
With `COc1ccc(C(=O)c2ccc3c(c2)CN2CC(=O)NC2=N3)cc1` [compound 12], in test [2], the “% changes … (diastolic aortic blood pressure)” value is reported as 0%; the “% changes … (heart rate)” value was 10%; the “% changes in haemodynamic variables: LVdp/dtmax/Pd (positive inotropic effect)” value is 57.5%; the “% changes in haemodynamic variables: T” value is reported as -10%.
Regarding `CN(C(=O)CO/N=C(\c1ccccc1)c1ccc2c(c1)CN1CC(=O)NC1=N2)C1CCCCC1` [compound 9, (E)-N-cyclohexyl-N-methyl-2-[[[phenyl(1,2,3,5-tetrahydro-2-oxoimidazo[2,1-b]quinazolin-7-yl)methylene]amino]oxy]acetamide], the IC50 in test [1] was 25 nM. In addition, the “variables related to cardiac performance (LV dp/dtmax, LV dp/dtmax/Pd)” value in test [3] (7 anaesthetized mongrel dogs, iv infusion over 120 min, starting after 10 min of infusion (0.05 mg.kg-1 total dose)) was “pronounced and significant increase”. Also, the “left ventricular end-diastolic pressure (preload)” value in test [3] (anaesthetized mongrel dogs, iv infusion over 120 min) is recorded as “no change or even a slight decrease”. The “time constant of relaxation” value in test [3] (anaesthetized mongrel dogs, iv infusion, starting after 10 min of infusion (0.05 mg.kg-1 total dose)) is “significant decrease”. Also, the “Systemic and pulmonary peripheral vascular resistance” value in test [3] (anaesthetized mongrel dogs, iv infusion, starting after 20 min of infusion (0.10 mg.kg-1 total dose)) is recorded as “decrease significantly”. For the same compound, in test [3] (anaesthetized mongrel dogs), the cardiac output entry is listed as “concomitant increase in cardiac output” and the heart rate entry is reported as “no change in heart rate”. Also, in test [3] (positive inotropic, lusitropic and vasodilatory effects, total dose of 0.60 mg.kg-1), the “duration of the changes in the variables after stopping the infusion” value was “more than 75 min”.
